Laboratory results as given in the supplement of paper PMC10627819.

Legend:
B. subtilis 168 = experiment: Bliss interaction score (quartile over a dose matrix) (fitness difference); higher = more antagonism (negative = synergy)
In short: (§1)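 The Bliss score is observed minus expected fitness, where expected fitness is the product of the single-drug fitness values inferred from the combination data. Fitness is the OD595 at the onset of stationary phase over the plate's robust no-drug mean, capped at 1. Scores are summarised by quartiles over technical, biological and donor/recipient replicates.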

S. aureus DSM 20231 [1] = experiment: as above
In short: as §1

S. pneumoniae D39V [2] = experiment: as above
In short: as §1

S. aureus Newman [3] = experiment: as above
In short: as §1

S. aureus DSM 20231 [4] = experiment: fitness (endpoint OD595 vs no drug) (fraction); higher = more growth
In short: (§2)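 Fitness was defined as the optical density at the transition into stationary phase relative to the robust mean of no-drug control wells. Values were capped at 1. Cultures were started at OD595 0.01 in 384-well plates (30 µl, or 55 µl for S. pneumoniae) in TSB, LB Lennox or CY at 37 °C. OD595 was recorded every 30 min over 14 h, with the first reading subtracted as background.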

S. aureus Newman [5] = experiment: as above
In short: as §2

S. pneumoniae D39V [6] = experiment: as above
In short: as §2
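For Bliss interaction score (quartile over a dose matrix) in this document: first quartile when negative (synergy) and third quartile when positive (antagonism).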

CCCCCCCCCC(=O)N[C@H]1[C@H](Oc2c3cc4cc2Oc2ccc(cc2Cl)[C@@H](O[C@@H]2O[C@H](CO)[C@@H](O)[C@H](O)[C@H]2NC(C)=O)[C@@H]2NC(=O)[C@H](NC(=O)[C@@H]4NC(=O)[C@H]4NC(=O)[C@@H](Cc5ccc(c(Cl)c5)O3)NC(=O)[C@H](N)c3ccc(O)c(c3)Oc3cc(O)cc4c3)c3ccc(O)c(c3)-c3c(O[C@H]4O[C@H](CO)[C@@H](O)[C@H](O)[C@@H]4O)cc(O)cc3[C@@H](C(=O)O)NC2=O)O[C@H](CO)[C@@H](O)[C@@H]1O [Teicoplanin] + CN[C@H](CC(C)C)C(=O)N[C@H]1C(=O)N[C@@H](CC(N)=O)C(=O)N[C@H]2C(=O)N[C@H]3C(=O)N[C@H](C(=O)N[C@H](C(=O)O)c4cc(O)cc(O)c4-c4cc3ccc4O)[C@H](O)c3ccc(c(Cl)c3)Oc3cc2cc(c3O[C@@H]2O[C@H](CO)[C@@H](O)[C@H](O)[C@H]2O[C@H]2C[C@](C)(N)[C@H](O)[C@H](C)O2)Oc2ccc(cc2Cl)[C@H]1O [Vancomycin]
main component drawn
Details | Bliss interaction score
B. subtilis 168 | -0.0512
S. aureus DSM 20231 [1] | -0.0576
S. aureus Newman [3] | 0.0485
S. pneumoniae D39V [2] | 0.0981

fitness, main component drawn
Details | first compound 0.1562 µg/mL | first compound 0.3125 µg/mL | first compound 0.625 µg/mL
S. aureus DSM 20231 [4], partner 0.1875 µg/mL | 0.979 | ≥ 1 | ≥ 1
S. aureus DSM 20231 [4], partner 0.375 µg/mL | 0.834 | ≥ 1 | 0.956
S. aureus DSM 20231 [4], partner 0.75 µg/mL | 0.932 | ≥ 1 | 0.976
S. aureus Newman [5], partner 0.1875 µg/mL | ≥ 1 | ≥ 1 | 0.914
S. aureus Newman [5], partner 0.375 µg/mL | ≥ 1 | ≥ 1 | 0.881
S. aureus Newman [5], partner 0.75 µg/mL | 0.992 | 0.949 | 0.816

fitness, S. aureus Newman [5], one replicate, main component drawn
Details | first compound 0.62 µg/mL | first compound 1.24 µg/mL | first compound 2.48 µg/mL
partner 0.1875 µg/mL | 0.814 | 0.811 | 0.418
partner 0.375 µg/mL | 0.733 | 0.757 | 0.402
partner 0.75 µg/mL | 0.734 | 0.689 | 0.148

CN[C@H](CC(C)C)C(=O)N[C@H]1C(=O)N[C@@H](CC(N)=O)C(=O)N[C@H]2C(=O)N[C@H]3C(=O)N[C@H](C(=O)N[C@H](C(=O)O)c4cc(O)cc(O)c4-c4cc3ccc4O)[C@H](O)c3ccc(c(Cl)c3)Oc3cc2cc(c3O[C@@H]2O[C@H](CO)[C@@H](O)[C@H](O)[C@H]2O[C@H]2C[C@](C)(N)[C@H](O)[C@H](C)O2)Oc2ccc(cc2Cl)[C@H]1O [Vancomycin] + CC1=C\[C@@H](O)CC(=O)Cc2nc(co2)C(=O)N2CCC=C2C(=O)O[C@H](C(C)C)[C@H](C)/C=C/C(=O)NC\C=C\1 [Virginiamycin M1]
Details | Bliss interaction score
B. subtilis 168 | -0.0585
S. aureus DSM 20231 [1] | 0.0837
S. aureus Newman [3] | 0.0634
S. pneumoniae D39V [2] | 0.128

Details | fitness
S. aureus DSM 20231 [4], first compound 0.1875 µg/mL, partner 0.0625 µg/mL | ≥ 1
S. aureus DSM 20231 [4], first compound 0.1875 µg/mL, partner 0.125 µg/mL | ≥ 1
S. aureus DSM 20231 [4], first compound 0.1875 µg/mL, partner 0.25 µg/mL | 0.998
S. aureus DSM 20231 [4], first compound 0.375 µg/mL, partner 0.0625 µg/mL | ≥ 1
S. aureus DSM 20231 [4], first compound 0.375 µg/mL, partner 0.125 µg/mL | ≥ 1
S. aureus DSM 20231 [4], first compound 0.375 µg/mL, partner 0.25 µg/mL | ≥ 1
S. aureus DSM 20231 [4], first compound 0.75 µg/mL, partner 0.0625 µg/mL | ≥ 1
S. aureus DSM 20231 [4], first compound 0.75 µg/mL, partner 0.125 µg/mL | ≥ 1
S. aureus DSM 20231 [4], first compound 0.75 µg/mL, partner 0.25 µg/mL | ≥ 1
S. aureus Newman [5], first compound 0.1875 µg/mL, partner 0.0625 µg/mL | 0.991
S. aureus Newman [5], first compound 0.1875 µg/mL, partner 0.125 µg/mL | 0.994
S. aureus Newman [5], first compound 0.1875 µg/mL, partner 0.25 µg/mL | 0.99
S. aureus Newman [5], first compound 0.375 µg/mL, partner 0.0625 µg/mL | ≥ 1
S. aureus Newman [5], first compound 0.375 µg/mL, partner 0.125 µg/mL | 0.988
S. aureus Newman [5], first compound 0.375 µg/mL, partner 0.25 µg/mL | 0.977
S. aureus Newman [5], first compound 0.75 µg/mL, partner 0.0625 µg/mL | ≥ 1
S. aureus Newman [5], first compound 0.75 µg/mL, partner 0.125 µg/mL | 0.995
S. aureus Newman [5], first compound 0.75 µg/mL, partner 0.25 µg/mL | 0.962
S. pneumoniae D39V [6], first compound 0.03125 µg/mL, partner 0.5 µg/mL | ≥ 1
S. pneumoniae D39V [6], first compound 0.03125 µg/mL, partner 1 µg/mL | ≥ 1
S. pneumoniae D39V [6], first compound 0.03125 µg/mL, partner 2 µg/mL | 0.982
S. pneumoniae D39V [6], first compound 0.0625 µg/mL, partner 0.5 µg/mL | 0.982
S. pneumoniae D39V [6], first compound 0.0625 µg/mL, partner 1 µg/mL | 0.97
S. pneumoniae D39V [6], first compound 0.0625 µg/mL, partner 2 µg/mL | 0.971
S. pneumoniae D39V [6], first compound 0.125 µg/mL, partner 0.5 µg/mL | 0.988
S. pneumoniae D39V [6], first compound 0.125 µg/mL, partner 1 µg/mL | 0.939
S. pneumoniae D39V [6], first compound 0.125 µg/mL, partner 2 µg/mL | 0.945
S. pneumoniae D39V [6], first compound 0.25 µg/mL, partner 2 µg/mL | 0.881

fitness, one replicate
Details | partner 0.15 µg/mL | partner 0.3 µg/mL | partner 0.5 µg/mL | partner 1 µg/mL | partner 2 µg/mL
S. aureus DSM 20231 [4], first compound 0.1875 µg/mL | – | – | 0.766 | 0.687 | –
S. aureus DSM 20231 [4], first compound 0.375 µg/mL | – | – | 0.727 | 0.733 | –
S. aureus DSM 20231 [4], first compound 0.75 µg/mL | – | – | 0.795 | 0.791 | –
S. aureus Newman [5], first compound 0.1875 µg/mL | – | – | 0.913 | 0.98 | 0.883
S. aureus Newman [5], first compound 0.375 µg/mL | – | – | 0.887 | 0.97 | 0.861
S. aureus Newman [5], first compound 0.75 µg/mL | – | – | 0.815 | 0.93 | 0.903
S. pneumoniae D39V [6], first compound 0.125 µg/mL | ≥ 1 | ≥ 1 | – | – | –
S. pneumoniae D39V [6], first compound 0.25 µg/mL | 0.946 | 0.993 | 0.873 | 0.681 | –
S. pneumoniae D39V [6], first compound 0.5 µg/mL | 0.355 | 0.71 | 0.366 | 0.0772 | –
